Measured values as given in patent US20130130922A1, “ANALYSIS OF METHYLATION SITES” (Centre for Addiction and Mental Health, priority 2011, published 2013).

Test system: Control-Sss reference system (specific and nonspecific DNA fragments)
Assay: mTAG labeling, biotinylation, capture on streptavidin beads and multiplex real-time PCR of Control-Sss reference system
Conditions: 50 ng Control-Sss mixed with 300 ng sonicated human brain genomic DNA; 50 μM Ado-6-amine; 1450 nM enzyme; 37° C. 30 min

Substance: SssI (Q142A/N370A): His6-tagged M.SssI C5 DNA methyltransferase (CG target site) double-alanine mutant Q142A/N370A
- level of nonspecific probe found: less than 1%
- yield of captured specific probe containing two SssI target sites: ~80%
